Values belong to the compound of their own block, whether it stands above or below them.
Legend:
ovariectomated rats [1] = experiment: Oral estrogenic effects: uterus weights in ovariectomated rats; assay type: in vivo, rat
Source text: (§1) The laboratory animals, adult female rats (breeder: HSD/WIN:WU) were ovariectomated on day 14. Treatment started two weeks later by a single oral application per day of the respective test substance. The dosages given for esters refer to the steroid portion of the substances. The tests were made in three groups (A, B, C) at various points in time. This is why there is a deviation in control group values. The tests of series A, B, and C can therefore be compared among each other if the values for the respective control groups are taken into account.
(§2) The procedure of allocating animals to groups was randomized. The experiment was carried out as a block test. The animals were weighed at the beginning and at the end of the experiment.
(§3) The start of treatment was defined as day 1 (=d1), treatment was finished on day 7 (=d7); the animals were killed on day 8, various organs (uteri, adrenal glands, liver) were removed, weighed and deep-frozen (−196° C.) for further examination.

ovariectomated rats [2] = experiment: Oral estrogenic effects: weights of adrenal glands in ovariectomated rats; assay type: in vivo, rat
Source text: as §1, §2, §3

ovariectomated rats [3] = experiment: Oral estrogen treatment: serum IGF1 (somatomedin C), RIA; assay type: in vivo, rat; design: unit not given here; details: Experiment A
Source text: as §1, §2, §3
(§4) Blood was taken from the retrobulbar plexus under ether anaesthesia prior to treatment (d0), and on (d4) and (d8). IGF1, angiotensin I, cholesterol and HDL cholesterol were determined in the serum obtained.
IGF1: RIA by bioMérieux Co.;

ovariectomated rats [4] = experiment: Hepatic parameters: total cholesterol levels in serum, enzymatic test; assay type: in vivo, rat; details: for Total cholesterol levels (mean value ± standard deviation): Experiment A
Protocol: The laboratory animals, adult female rats (breeder: HSD/WIN:WU) were ovariectomated on day 14. Treatment started two weeks later by a single oral application per day of the respective test substance. The dosages given for esters refer to the steroid portion of the substances. The tests were made in three groups (A, B, C) at various points in time.
as §2, §3, §4
(§5) cholesterol/HDL: enzymatic tests, photometric determination, reagents by Dr Bruno Lange GmbH.

ovariectomated rats [5] = experiment: Hepatic parameters: serum angiotensin I, modified RIA for renin activity; assay type: in vivo, rat; design: Angiotensin I: unit not given here; details: for Angiotensin I: Experiment A
Source text: as §1, §2, §3, §4
angiotensin: modified RIA for renin activity by Sorin Co.

ovariectomated rats [6] = experiment: Hepatic parameters: HDL cholesterol levels in serum, enzymatic test; assay type: in vivo, rat; details: Experiment A
Source text: as §1, §2, §3, §4, §5

[7] = Experiment B, 10 μg/animal/day p.o. d1-d7
[8] = Experiment C, 10 μg/animal/day p.o. d1-d7
[9] = Experiment A, 0.1 μg/animal/day p.o. d1-d7
[10] = Experiment A, 1 μg/animal/day p.o. d1-d7
[11] = Experiment A, 10 μg/animal/day p.o. d1-d7
[12] = Experiment A, 100 μg/animal/day p.o. d1-d7
[13] = day 4, 0.1 μg/animal/day p.o. d1-d7
[14] = day 4, 1 μg/animal/day p.o. d1-d7
[15] = day 4, 10 μg/animal/day p.o. d1-d7
[16] = day 4, 100 μg/animal/day p.o. d1-d7
[17] = day 8, 0.1 μg/animal/day p.o. d1-d7
[18] = day 8, 1 μg/animal/day p.o. d1-d7
[19] = day 8, 10 μg/animal/day p.o. d1-d7
[20] = day 8, 100 μg/animal/day p.o. d1-d7

Compound: C#CC1(O)CCC2C3CCc4cc(OS(=O)(=O)N(C)C)ccc4C3CCC21C (stereo not drawn) [J 665, 17β-Hydroxy-19-nor-17α-pregna-1,3,5(10)-trien-20-in-3-yl N,N-dimethyl-sulfamate]
Uterus weights (mean value) (ovariectomated rats [1]; [7]): 639.48 mg | Weights of adrenal glands (mean value) (ovariectomated rats [2]; [7]): 58.0 mg

Compound: CCN(CC)S(=O)(=O)Oc1ccc2c(c1)CC[C@@H]1[C@@H]2CC[C@]2(C)C(=O)CC[C@@H]12 [J 804, Estra-1,3,5(10)-trien-17-on-3-yl N,N-diethyl-sulfamate]
Uterus weights (mean value) (ovariectomated rats [1]; [7]): 166.0 mg | Weights of adrenal glands (mean value) (ovariectomated rats [2]; [7]): 53.9 mg

Compound: CCN(CC)S(=O)(=O)Oc1ccc2c(c1)CC[C@@H]1[C@@H]2CC[C@]2(C)[C@@H](O)CC[C@@H]12 [J 981, 17β-Hydroxy-estra-1,3,5(10)-trien-3-yl N,N-diethyl-sulfamate]
melting point: 175 to 176 °C | Uterus weights (mean value) (ovariectomated rats [1]; [7]): 225.34 mg | Weights of adrenal glands (mean value) (ovariectomated rats [2]; [7]): 50.5 mg

Compound: CCN(CC)S(=O)(=O)Oc1ccc2c(c1)CC[C@@H]1[C@@H]2CC[C@]2(C)[C@@H](O)[C@H](O)C[C@@H]12 [J 984, 16α,17β-Dihydroxy-estra-1,3,5(10)-trien-3-yl N,N-diethyl-sulfamate]
melting point: 121 to 124 °C | Uterus weights (mean value) (ovariectomated rats [1]; [8]): 245.63 mg | Weights of adrenal glands (mean value) (ovariectomated rats [2]; [8]): 59.3 mg

Compound: CCN(CC)S(=O)(=O)Oc1ccc2c(c1)CC[C@@H]1[C@@H]2CC[C@]2(C)[C@@H](O)C[C@@H]3C[C@]312 [J 983, 17β-Hydroxy-14α,15α-methylen-estra-1,3,5(10)-trien-3-yl N,N-diethyl-sulfamate]
Uterus weights (mean value) (ovariectomated rats [1]; [7]): 348.6 mg | Weights of adrenal glands (mean value) (ovariectomated rats [2]; [7]): 53.9 mg

Total cholesterol levels (mean value ± standard deviation) (ovariectomated rats [4]; [13]): 96.0 ± 15.0 mg/dL | Total cholesterol levels (mean value ± standard deviation) (ovariectomated rats [4]; [14]): 108.5 ± 10.3 mg/dL | Total cholesterol levels (mean value ± standard deviation) (ovariectomated rats [4]; [15]): 92.4 ± 12.1 mg/dL | Total cholesterol levels (mean value ± standard deviation) (ovariectomated rats [4]; [16]): 24.5 ± 14.4 mg/dL | Total cholesterol levels (mean value ± standard deviation) (ovariectomated rats [4]; [17]): 91.1 ± 18.3 mg/dL | Total cholesterol levels (mean value ± standard deviation) (ovariectomated rats [4]; [18]): 101.4 ± 6.3 mg/dL | Total cholesterol levels (mean value ± standard deviation) (ovariectomated rats [4]; [19]): 81.9 ± 12.6 mg/dL | Total cholesterol levels (mean value ± standard deviation) (ovariectomated rats [4]; [20]): 18.6 ± 8.3 mg/dL | Angiotensin I (ovariectomated rats [5]; [13]): 380.8 ± 35.8 | Angiotensin I (ovariectomated rats [5]; [14]): 383.8 ± 47.1 | Angiotensin I (ovariectomated rats [5]; [15]): 435.2 ± 53.8 | Angiotensin I (ovariectomated rats [5]; [16]): 734.0 ± 75.7 | Angiotensin I (ovariectomated rats [5]; [17]): 462.2 ± 71.3 | Angiotensin I (ovariectomated rats [5]; [18]): 425.9 ± 43.9 | Angiotensin I (ovariectomated rats [5]; [19]): 373.4 ± 42.3 | Angiotensin I (ovariectomated rats [5]; [20]): 668.2 ± 68.6 | Effect on angiotensin I (AI) values, in words (ovariectomated rats [5]; dose of 10 μg/day): no clear effect on AI | Influence on the angiotensin I level, summary in words (ovariectomated rats [5]; dose-action relationships on days 4 and 8): clearly below those for EE | HDL cholesterol levels (mean value ± standard deviation) (ovariectomated rats [6]; [13]): 57.6 ± 6.5 mg/dL | HDL cholesterol levels (mean value ± standard deviation) (ovariectomated rats [6]; [14]): 57.1 ± 7.1 mg/dL | HDL cholesterol levels (mean value ± standard deviation) (ovariectomated rats [6]; [15]): 54.6 ± 5.7 mg/dL | HDL cholesterol levels (mean value ± standard deviation) (ovariectomated rats [6]; [16]): 13.2 ± 14.0 mg/dL | HDL cholesterol levels (mean value ± standard deviation) (ovariectomated rats [6]; [17]): 57.3 ± 6.0 mg/dL | HDL cholesterol levels (mean value ± standard deviation) (ovariectomated rats [6]; [18]): 59.6 ± 6.8 mg/dL | HDL cholesterol levels (mean value ± standard deviation) (ovariectomated rats [6]; [19]): 49.9 ± 6.0 mg/dL | HDL cholesterol levels (mean value ± standard deviation) (ovariectomated rats [6]; [20]): 10.7 ± 8.2 mg/dL
Compound: C#C[C@]1(O)CC[C@H]2[C@@H]3CCc4cc(OS(=O)(=O)N(CC)CC)ccc4[C@H]3CC[C@@]21C [J 271, 17β-Hydroxy-19-nor-17α-pregna-1,3,5(10)-triene-20-in-3-yl N,N-diethyl-sulfamate]
IGF1 (= somatomedin C) (ovariectomated rats [3]; 100 μg/animal/day p.o. d1-d7, d 0 (prior to treatment)): 826.4 ± 96.7 | IGF1 (= somatomedin C) (ovariectomated rats [3]; 100 μg/animal/day p.o. d1-d7, d 4): 593.7 ± 57.0 | IGF1 (= somatomedin C) (ovariectomated rats [3]; 100 μg/animal/day p.o. d1-d7, d 8): 351.5 ± 32.6 | Uterus weights (mean value) (ovariectomated rats [1]; [9]): 144.2 mg | Uterus weights (mean value) (ovariectomated rats [1]; [10]): 289.9 mg | Uterus weights (mean value) (ovariectomated rats [1]; [11]): 605.1 mg | Uterus weights (mean value) (ovariectomated rats [1]; [12]): 563.6 mg | Uterus weights (mean value) (ovariectomated rats [1]; [7]): 540.8 mg | Oral dose at which the effect on uterus growth has reached a plateau (ovariectomated rats [1]; oral): 0.01 mg/animal/day | Effects on uterus growth, comparison in words (ovariectomated rats [1]; oral, versus EE and estradiol): clear superiority to EE and great superiority to estradiol | Drop in total and HDL cholesterol levels in the blood, in words (ovariectomated rats [4]; highest dose, versus EE): still recognizably lower than that caused by EE | Effect on cholesterol levels in the blood (total and HDL), in words (ovariectomated rats [4]; up to 10 μg): did not reduce cholesterol levels in the blood | Weights of adrenal glands (mean value) (ovariectomated rats [2]; [9]): 57.1 mg | Weights of adrenal glands (mean value) (ovariectomated rats [2]; [10]): 57.4 mg | Weights of adrenal glands (mean value) (ovariectomated rats [2]; [11]): 63.1 mg | Weights of adrenal glands (mean value) (ovariectomated rats [2]; [12]): 66.5 mg | Weights of adrenal glands (mean value) (ovariectomated rats [2]; [7]): 57.9 mg | Effect on angiotensin I (AI) values, in words (ovariectomated rats [5]; dose of 100 μg/day): increases in AI values but these are significantly lower than those observed under the influence of EE or J 824

From patent US6841548B2, “Pharmaceutical preparations containing estra-1,3,5(10)-triene derivatives” (Schering AG, priority 1994, dated 2005)
